# Laboratory results from publication PMC4701221, “Novel Promising Estrogenic Receptor Modulators: Cytotoxic and Estrogenic Activity of Benzanilides and Dithiobenzanilides” (PLoS ONE, 2016).
# Where a chain is given by its changes, count along the chain named. Entries after “also recorded” stand apart in the source; their conditions may differ.
# Assays:
# human ERα receptor = target: T1, human ERα receptor (Homo sapiens, UniProt P03372); assay: Estrogen Receptor luciferase assay in HEK293 cells transfected with ERα; type: cell-based; settings: HEK293 transfected with ERα and luciferase reporter, compared with estradiol, Fig 3A/3B
# T1 construct: host or cells: HEK293
# T1 sequence (P03372 1-595): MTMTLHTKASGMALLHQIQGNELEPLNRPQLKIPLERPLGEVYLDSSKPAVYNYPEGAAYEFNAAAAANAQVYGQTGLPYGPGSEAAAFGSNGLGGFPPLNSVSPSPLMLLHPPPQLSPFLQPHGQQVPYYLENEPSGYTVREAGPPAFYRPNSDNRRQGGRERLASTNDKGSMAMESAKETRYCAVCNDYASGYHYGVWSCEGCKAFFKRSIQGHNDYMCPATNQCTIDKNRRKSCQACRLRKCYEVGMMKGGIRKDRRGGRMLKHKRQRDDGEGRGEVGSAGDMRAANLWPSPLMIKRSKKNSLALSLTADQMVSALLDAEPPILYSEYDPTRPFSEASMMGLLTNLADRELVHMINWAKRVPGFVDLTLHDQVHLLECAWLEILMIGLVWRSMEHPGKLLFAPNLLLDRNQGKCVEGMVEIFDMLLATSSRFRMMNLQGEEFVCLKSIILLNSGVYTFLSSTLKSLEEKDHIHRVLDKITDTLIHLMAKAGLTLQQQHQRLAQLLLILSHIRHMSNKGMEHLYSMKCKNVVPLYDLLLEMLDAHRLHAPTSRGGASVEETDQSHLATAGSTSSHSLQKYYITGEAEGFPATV
# Source text: (§1) To obtain a eukaryotic vector expressing only the ER-α nuclear receptor, a construct was designed by cloning a KpnI-BamHI fragment from plasmid pEGFP-C1-ERα containing the ERα coding sequence that includes a stop signal into the pEGFP-N3 plasmid (Clontech Laboratories, Palo Alto, CA) under the control of the CMV promoter. This construction was termed pEGFP-N-ERα, and although it encoded both human ERα receptor and GFP protein, only the former is expressed. For mock transfections, pEGFP-N3 plasmid was digested with BglII and NotI and religated after polishing DNA ends to remove GFP coding sequence. Plasmid sequence was confirmed by automatic sequencing. Prior to transfection, cells were seeded in 48 well plates at density of 1.5 x 10^4 cells/well and incubated for 24 h to reach a cell confluence of 80–90%. […] MCF-7 cells, which endogenously express ERα receptor, were transfected with p3xERRE/ERE-luciferase plus the pRLTK Renilla luciferase control plasmid (95:5). Firefly and Renilla luciferase activities were measured using the Dual Luciferase Assay System (Promega, Madison, WI, USA), following a standard protocol using a Sirius L luminometer (Berthold Technologies, Bad Wildbad, Germany). Data were expressed as relative changes in luciferase activity and normalized to 100%.
# ERα W383S = target: T2, ERα W383S (Homo sapiens, UniProt P03372, W383S); assay: Estrogen Receptor luciferase assay in HEK293 cells transfected with ERα W383S; type: cell-based; settings: HEK293, Fig 6A
# T2 construct: expressed in transfected cells; host or cells: HEK293
# T2 sequence (P03372 1-595 W383S): T1 sequence (P03372 1-595) with W383S
# Source text: as §1, with “This construction was termed pEGFP-N-ERα, and although it encoded both human ERα receptor and GFP protein, only the former is expressed.” left out
# Plasmids for the expression of the ERα W383A and ER-α W383S mutated receptors were constructed by the quick change site directed mutagenesis method using plasmid pEGFP-N-ERα as template.
smiles,measurement,setting,value
Fc1ccc(NC(=S)c2ccc(NC(=S)c3ccc(F)cc3)cc2)cc1 [Compound 18],ER dependent transcriptional activity,human ERα receptor,capable to mediate ER dependent transcriptional activity in a similar mode than estradiol; also recorded: higher transcriptional activity at all assayed concentrations compared with estradiol
same,"Activation of ER dependent transcription, ERα W383S vs wild type",ERα W383S,less active
